What all share (type): biochemical
Assay [1] concerns the target T1, CYP3A4 (Homo sapiens, UniProt P08684).
T1 construct: 0.1 mg/mL human liver microsomes; from tissue; host or cells: human liver microsomes
Description: IC50 against CYP3A4 by inhibition of testosterone metabolism in human liver microsomes. As to conditions: 0.1 mg/mL human liver microsomes, 25 μM testosterone, 1 mM NADPH, 6-β-OH-testosterone production, eight minutes; read-out: IC50, μM (HLM, testosterone). The procedure, abridged:
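Testosterone used as substrate, incubated for eight minutes. 6-β-OH-testosterone formation quantified by LC-MS/MS (MRM) as peak area ratio to internal standard against a metabolite standard curve. IC50 derived from inhibition of this metabolism.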

The target of assay [2] is T2, recombinant CYP3A4-b5 enzyme (Baculosomes®) (Homo sapiens, UniProt P08684).
T2 construct: purchased Invitrogen (Carlsbad, Calif.)
Description: Kiapp against recombinant CYP3A4 enzyme (Baculosomes), BFC substrate. To be noted: recombinant CYP3A4-b5 (Invitrogen), 5 uM BFC, 200 uM NADPH, pre-incubation at least 30 minutes, pH 7.0, room temperature. The procedure, abridged: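 Recombinant CYP3A4-b5 Baculosomes were run in 100 mM sodium phosphate pH 7.0 with 5 mM TCEP and 2% DMF at room temperature, with ~30 min pre-incubation. The reaction was started with NADPH (200 uM) and BFC (5 uM), both final. Kiapp came from initial fluorescence velocities over the first 5 min across inhibitor concentrations.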

Assay [3] concerns the target T1, CYP3A4. The experiment in a line: IC50 against CYP3A4 by inhibition of midazolam metabolism in human liver microsomes. As to conditions: 0.1 mg/mL human liver microsomes, 2 μM midazolam, 1 mM NADPH, 1-hydroxymidazolam production, eight minutes; read-out: IC50, μM (HLM, midazolam). Put shortly:
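Human liver microsomes (0.1 mg/mL) incubated 8 min with 2 μM midazolam and 1 mM NADPH in 100 mM potassium phosphate, pH 7.4. 1-Hydroxymidazolam quantified by LC-MS/MS (MRM) as peak area ratio to internal standard against a metabolite standard curve.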

Assay [4] deals with T3, recombinant CYP3A4+b5 enzyme (Supersomes®) (Homo sapiens, UniProt P08684).
T3 construct: purchased BD Biosciences (Woburn, Mass.)
Description: Kiapp against recombinant CYP3A4 enzyme (Supersomes), BFC substrate. To be noted: recombinant CYP3A4+b5 (BD Biosciences), 5 uM BFC, 200 uM NADPH, pre-incubation at least 30 minutes, pH 7.0, room temperature. The method, then:
1. Determination of Compound Kiapp
A determination of the Kiapp of the compounds of the invention against recombinant CYP3A4 enzyme was performed as follows. The assay was performed in a 100 mM sodium phosphate buffer pH 7.0, 5 mM TCEP and containing 2% dimethylformamide (final concentration) upon addition of substrate and inhibitor. A typical reaction for the determination of Kiapp values was carried at room temperature in a solid black Costar u-bottom 96-well polypropylene plate. In each well, recombinant CYP3A4 enzyme (5.5 nM or 8 nM, final concentration depending on the commercial source of the enzyme) was pre-incubated in the presence of the inhibitor for at least 30 minutes in the assay buffer. When pre-incubation was completed (˜30 min), the reaction was initiated by adding NADPH (200 uM, final concentration), and 7-benzyloxy-4-(trifluoromethyl)-coumarin (BFC) (5 uM, final concentration). The oxidation of the coumarin substrate was recorded by a 96-well plate reader POLARstar (BMG LABTECH, Offenburg, Germany).
The initial reaction velocities were measured during the first 5 min of the reaction when the release of the fluorescent product is linear with time, in the absence and in the presence of various concentrations of inhibitors. For non-partial & partial inhibitors, the Kiapp values were determined by using the equation for tight-binding inhibitor developed by Morrison, J F (Morrison J F. Biochim Biophys Acta. 1969, 185: 269-86) and by Szedlaseck S E et al. (Szedlascek, S. E., Ostafe, V., Serban, M., and Vlad, M. O. Biochem. J. 1988, 254:311-312), respectively.
The fluorescent substrate BFC was purchased from Sigma (St Louis, Mo.). Two commercial sources of recombinant enzymes were used in this study: recombinant CYP3A4-b5 enzyme (Baculosomes®) was purchased from Invitrogen (Carlsbad, Calif.) and the recombinant CYP3A4+b5 enzyme (Supersomes®) was purchased from BD Biosciences (Woburn, Mass.).

Where only a bound is given, the exact number is not on record here.

T3 sequence (P08684 2-503 limits assumed): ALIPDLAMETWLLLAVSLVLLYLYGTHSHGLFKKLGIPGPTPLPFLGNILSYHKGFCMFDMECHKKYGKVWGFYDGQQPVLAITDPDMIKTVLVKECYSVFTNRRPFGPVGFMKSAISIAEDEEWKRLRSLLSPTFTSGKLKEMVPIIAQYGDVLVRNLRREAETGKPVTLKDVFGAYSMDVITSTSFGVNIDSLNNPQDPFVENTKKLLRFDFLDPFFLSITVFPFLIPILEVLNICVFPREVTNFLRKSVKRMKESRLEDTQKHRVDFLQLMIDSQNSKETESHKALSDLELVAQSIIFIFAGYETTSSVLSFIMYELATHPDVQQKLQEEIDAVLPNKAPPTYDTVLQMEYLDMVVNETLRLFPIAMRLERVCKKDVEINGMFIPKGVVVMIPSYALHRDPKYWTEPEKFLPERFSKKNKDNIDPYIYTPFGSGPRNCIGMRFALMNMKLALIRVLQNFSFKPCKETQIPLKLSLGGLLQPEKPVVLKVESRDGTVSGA
T1 sequence (P08684 whole entry): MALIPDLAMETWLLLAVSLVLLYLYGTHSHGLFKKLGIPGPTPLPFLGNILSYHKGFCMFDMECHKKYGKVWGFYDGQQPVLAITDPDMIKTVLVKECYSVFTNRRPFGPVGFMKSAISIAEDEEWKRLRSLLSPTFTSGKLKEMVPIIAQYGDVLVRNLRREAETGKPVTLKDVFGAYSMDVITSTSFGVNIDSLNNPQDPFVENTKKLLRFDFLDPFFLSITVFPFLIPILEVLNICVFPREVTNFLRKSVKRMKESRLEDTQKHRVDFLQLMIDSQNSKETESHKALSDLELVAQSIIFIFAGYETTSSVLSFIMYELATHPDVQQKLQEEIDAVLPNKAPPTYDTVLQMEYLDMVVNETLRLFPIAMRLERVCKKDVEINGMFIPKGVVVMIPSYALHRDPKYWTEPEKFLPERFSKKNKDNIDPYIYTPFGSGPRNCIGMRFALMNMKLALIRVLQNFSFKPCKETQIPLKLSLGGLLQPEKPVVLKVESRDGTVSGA
T2 sequence (P08684 whole entry): as above

One may read the IC50 as the concentration that inhibits the measured activity by half. As to `O=C(Cn1nc(-c2ccncc2)cc1Cc1ccc(F)cc1)NC1CCS(=O)(=O)C1` (stereo not drawn) [Example 93, N-(1,1-dioxidotetrahydro-3-thienyl)-2-[5-(4-fluorobenzyl)-3-pyridin-4-yl-1H-pyrazol-1-yl]acetamide], the values for the half-inhibitory concentration (IC50) on CYP3A4 [1] and at CYP3A4 [3] were 0.007 µM and 0.014 µM, respectively. The values for the Ki in assay [2] and in assay [4] were 0.0134 µM and 0.0039 µM, respectively.

For `O=C(Cn1nc(-c2ccncc2)cc1Cc1ccc(F)cc1)N[C@H]1CC[C@@H](O)CC1` [Example 95, 2-[5-(4-fluorobenzyl)-3-pyridin-4-yl-1H-pyrazol-1-yl]-N-(cis-4-hydroxycyclohexyl)-acetamide], the concentration for half-maximal inhibition (IC50) was less than 0.021 µM at CYP3A4 [1] and less than 0.012 µM on CYP3A4 [3]. Moreover, the values for the Ki in assay [2] and in assay [4] were 0.0871 µM and 0.0059 µM, respectively.

In the case of `CC(=O)N(C)C1CCN(C(=O)Cn2nc(-c3ccncc3)cc2Cc2ccc(F)cc2)C1` (stereo not drawn) [Example 99, N-(1-{[5-(4-fluorobenzyl)-3-pyridin-4-yl-1H-pyrazol-1-yl]acetyl}pyrrolidin-3-yl)-N-methylacetamide], the IC50 at CYP3A4 [1] was 0.064 µM; at CYP3A4 [3], 0.032 µM. Also, the values for the Ki in assay [2] and in assay [4] were 0.248 µM and 0.0178 µM, respectively.

Regarding `CC(=O)N[C@@H]1CCN(C(=O)Cn2nc(-c3ccncc3)cc2Cc2ccc(F)cc2)C1` [Example 100, N-[(3R)-1-{2-[5-(4-fluorobenzyl)-3-pyridin-4-yl-1H-pyrazol-1-yl]acetyl}pyrrolidin-3-yl]acetamide], the IC50 was 0.0845 µM at CYP3A4 [1] and 0.044 µM at CYP3A4 [3]. Further, the Ki in assay [2] was found to be 0.298 µM; in assay [4], 0.0225 µM.

On to `O=C(Cn1nc(-c2ccncc2)cc1Cc1ccc(F)cc1)N1CCC(N2CCOC2=O)CC1` [Example 118, 3-(1-{[5-(4-fluorobenzyl)-3-pyridin-4-yl-1H-pyrazol-1-yl]acetyl}piperidin-4-yl)-1,3-oxazolidin-2-one], for which the figures for the IC50 at CYP3A4 [1] and on CYP3A4 [3] were 0.013 µM and 0.00837 µM, respectively. Also, the Ki in assay [2] was found to be 0.0442 µM; in assay [4] it was 0.0065 µM.

In the case of `CS(=O)(=O)NC1CCN(C(=O)Cn2nc(-c3c[nH]cn3)cc2Cc2ccc(F)cc2)CC1` [Example 119, N-(1-{2-[5-(4-fluorobenzyl)-3-(1H-imidazol-4-yl)-1H-pyrazol-1-yl]acetyl}piperidin-4-yl)methanesulfonamide], the IC50 on CYP3A4 [1] is greater than 0.75 µM; on CYP3A4 [3], 0.167 µM. Moreover, the Ki in assay [2] was 0.314 µM; in assay [4] it was 0.166 µM.

As for `O=C(Cn1nc(-c2ccncc2)cc1Cc1ccc(F)cc1)N1CCC(N2CCCS2(=O)=O)CC1` [Example 120, 4-[1-{2-[4-(1,1-dioxidoisothiazolidin-2-yl)piperidin-1-yl]-2-oxoethyl}-5-(4-fluorobenzyl)-1H-pyrazol-3-yl]pyridine], the IC50 stood at 0.027 µM on CYP3A4 [1] and 0.017 µM on CYP3A4 [3]. The Ki in assay [2] is 0.003 µM; in assay [4], 0.0068 µM.

With `O=C(Cn1nc(-c2ccncc2)cc1Cc1ccc(F)cc1)N1CC(N2CCOCC2)C1` [Example 121, 4-(1-{[5-(4-fluorobenzyl)-3-pyridin-4-yl-1H-pyrazol-1-yl]acetyl}azetidin-3-yl)morpholine], the IC50 on CYP3A4 [1] stood at 0.088 µM; at CYP3A4 [3], 0.045 µM. In addition, the Ki in assay [2] came to 0.0978 µM; in assay [4], 0.0136 µM.

As to `CC(=O)N(C)C1CCN(C(=O)Cn2nc(-c3c[nH]cn3)cc2Cc2ccc(F)cc2)CC1` [Example 122, N-(1-{[5-(4-fluorobenzyl)-3-(1H-imidazol-4-yl)-1H-pyrazol-1-yl]acetyl}piperidin-4-yl)-N-methylacetamide], the results for the 50% inhibitory concentration (IC50) at CYP3A4 [1] and at CYP3A4 [3] were greater than 0.75 µM and 0.62 µM, respectively. For the same compound, the Ki in assay [2] is 0.482 µM; in assay [4], 0.178 µM.

Consider `CN(C(=O)Cn1nc(-c2c[nH]cn2)cc1Cc1ccc(F)cc1)[C@H]1CC[C@H](O)CC1` [Example 123, 2-[5-(4-fluorobenzyl)-3-(1H-imidazol-4-yl)-1H-pyrazol-1-yl]-N-(trans-4-hydroxycyclohexyl)-N-methylacetamide], for which the concentration for half-maximal inhibition (IC50) at CYP3A4 [1] worked out at 0.554 µM; at CYP3A4 [3], 0.397 µM. Further, the Ki in assay [2] stood at 0.459 µM; in assay [4], 0.167 µM.

On to `COC(=O)NC1CN(C(=O)Cn2nc(-c3ccncc3)cc2Cc2ccc(F)cc2)C1` [Example 124, methyl (1-{[5-(4-fluorobenzyl)-3-pyridin-4-yl-1H-pyrazol-1-yl]acetyl}azetidin-3-yl)carbamate], for which the IC50 at CYP3A4 [1] came out at 0.032 µM; at CYP3A4 [3], 0.025 µM. In addition, the Ki was found to be 0.123 µM in assay [2] and 0.0147 µM in assay [4].

`CS(=O)(=O)NC1CN(C(=O)Cn2nc(-c3ccncc3)cc2Cc2ccc(F)cc2)C1` [Example 125, N-(1-{2-[5-(4-fluorobenzyl)-3-pyridin-4-yl-1H-pyrazol-1-yl]acetyl}azetidin-3-yl)methanesulfonamide]: the IC50 came out at 0.027 µM on CYP3A4 [1] and 0.022 µM at CYP3A4 [3]. The Ki came to 0.0666 µM in assay [2] and 0.00884 µM in assay [4].

Take `CNC(=O)NC1CN(C(=O)Cn2nc(-c3ccncc3)cc2Cc2ccc(F)cc2)C1` [Example 126, 1-(1-{[5-(4-fluorobenzyl)-3-pyridin-4-yl-1H-pyrazol-1-yl]acetyl}azetidin-3-yl)-3-methylurea]: the IC50 on CYP3A4 [1] was 0.059 µM; at CYP3A4 [3], 0.034 µM. Also, the Ki in assay [2] was found to be 0.196 µM; in assay [4] it was 0.031 µM.

Regarding `CC(=O)NC1CN(C(=O)Cn2nc(-c3ccncc3)cc2Cc2ccc(F)cc2)C1` [Example 127, N-(1-{2-[5-(4-fluorobenzyl)-3-pyridin-4-yl-1H-pyrazol-1-yl]acetyl}azetidin-3-yl)acetamide], the IC50 on CYP3A4 [1] came out at 0.08 µM; at CYP3A4 [3], 0.041 µM. Further, the Ki turned out to be 0.141 µM in assay [2] and 0.0191 µM in assay [4].

With `COC(=O)N(C)C1CCN(C(=O)Cn2nc(-c3ccncc3)cc2Cc2ccc(F)cc2)C1` (stereo not drawn) [Example 128, methyl (1-{[5-(4-fluorobenzyl)-3-pyridin-4-yl-1H-pyrazol-1-yl]acetyl}pyrrolidin-3-yl)methylcarbamate], the IC50 on CYP3A4 [1] came out at 0.026 µM; at CYP3A4 [3], 0.022 µM. For the same compound, the Ki in assay [2] was 0.0488 µM; in assay [4] it was 0.00507 µM.

As to `CNC(=O)N(C)C1CCN(C(=O)Cn2nc(-c3ccncc3)cc2Cc2ccc(F)cc2)C1` (stereo not drawn) [Example 129, 1-(1-{[5-(4-fluorobenzyl)-3-pyridin-4-yl-1H-pyrazol-1-yl]acetyl}pyrrolidin-3-yl)-1,3-dimethylurea], the half-inhibitory concentration (IC50) was 0.066 µM on CYP3A4 [1] and 0.022 µM on CYP3A4 [3]. Also, the Ki in assay [2] was found to be 0.312 µM; in assay [4], 0.017 µM.

On to `COC(=O)N[C@H]1CCN(C(=O)Cn2nc(-c3ccncc3)cc2Cc2ccc(F)cc2)C1` [Example 130, methyl [(3S)-1-{[5-(4-fluorobenzyl)-3-pyridin-4-yl-1H-pyrazol-1-yl]acetyl}pyrrolidin-3-yl]carbamate], for which the concentration for half-maximal inhibition (IC50) at CYP3A4 [1] was 0.032 µM; at CYP3A4 [3] it was 0.015 µM. For the same compound, the Ki in assay [2] turned out to be 0.0276 µM; in assay [4], 0.00618 µM.

Regarding `CS(=O)(=O)CCN1CCN(C(=O)Cn2nc(-c3ccncc3)cc2Cc2ccc(F)cc2)CC1` [Example 131, 1-{[5-(4-fluorobenzyl)-3-pyridin-4-yl-1H-pyrazol-1-yl]acetyl}-4-[2-(methylsulfonyl)ethyl] piperazine], the IC50 on CYP3A4 [1] came to 0.037 µM; at CYP3A4 [3], 0.0139 µM. The results for the Ki in assay [2] and in assay [4] were 0.0111 µM and 0.00283 µM, respectively.
